{"source": "patent US20090136979A1", "about": "“Class IIA Histone Deacetylase (HDAC) Substrate” (ISTITUTO DI RICERCHE DI BIOLOGIA MOLECOLARE P. ANG, priority 2005, published 2009)", "key": {"HDAC4-CD [1]": {"target": "T1, HDAC4-CD (Homo sapiens, UniProt P56524)", "T1 construct": "The HDAC4 C-terminal region from T-653 to L-1084; 6xHis; made in house; host or cells: E. coli BL21 Star (DE3)", "T1 sequence (P56524 653-1084)": "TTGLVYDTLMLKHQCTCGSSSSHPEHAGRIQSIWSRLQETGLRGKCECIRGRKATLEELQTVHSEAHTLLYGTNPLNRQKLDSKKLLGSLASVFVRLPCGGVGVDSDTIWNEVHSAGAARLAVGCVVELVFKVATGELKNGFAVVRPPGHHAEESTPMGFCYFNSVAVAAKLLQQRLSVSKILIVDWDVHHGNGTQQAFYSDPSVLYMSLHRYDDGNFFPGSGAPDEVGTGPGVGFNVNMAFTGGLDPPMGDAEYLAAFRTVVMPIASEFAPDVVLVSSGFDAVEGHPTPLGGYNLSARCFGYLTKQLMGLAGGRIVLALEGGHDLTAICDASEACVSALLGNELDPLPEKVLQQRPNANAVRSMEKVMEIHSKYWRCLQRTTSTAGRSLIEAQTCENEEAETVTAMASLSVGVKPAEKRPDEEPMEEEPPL", "assay": "Activity on Boc-L-Lys(ε-trifluoroacetyl)-MCA compared with Biomol standard substrate, HDAC4-CD", "format": "biochemical", "conditions": "FIG. 5", "excerpt": "(§1) The activities measured on Boc-L-Lys(ε-trifluoroacetyl)-MCA were compared with activities on the Biomol standard substrate (not shown)."}, "HDAC8 [2]": {"target": "T2, HDAC8 (Homo sapiens, UniProt Q9BY41)", "T2 sequence (Q9BY41 1-377)": "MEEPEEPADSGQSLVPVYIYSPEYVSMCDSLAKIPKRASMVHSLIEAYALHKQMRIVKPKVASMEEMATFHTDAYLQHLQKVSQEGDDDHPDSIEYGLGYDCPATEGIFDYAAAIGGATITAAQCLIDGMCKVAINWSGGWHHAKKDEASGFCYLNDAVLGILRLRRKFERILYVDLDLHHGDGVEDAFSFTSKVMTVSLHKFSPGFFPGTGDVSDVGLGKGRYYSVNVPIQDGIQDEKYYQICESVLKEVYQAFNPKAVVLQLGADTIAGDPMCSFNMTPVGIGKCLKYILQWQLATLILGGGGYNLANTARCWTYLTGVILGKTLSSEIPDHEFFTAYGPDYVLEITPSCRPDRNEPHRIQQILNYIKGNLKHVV", "assay": "Activity on Boc-L-Lys(ε-trifluoroacetyl)-MCA compared with Biomol standard substrate, HDAC8", "format": "biochemical", "conditions": "HDAC8, FIG. 5", "excerpt": "as §1"}, "HDAC3": {"target": "HDAC3 (Homo sapiens, UniProt O15379)", "sequence (O15379 whole entry)": "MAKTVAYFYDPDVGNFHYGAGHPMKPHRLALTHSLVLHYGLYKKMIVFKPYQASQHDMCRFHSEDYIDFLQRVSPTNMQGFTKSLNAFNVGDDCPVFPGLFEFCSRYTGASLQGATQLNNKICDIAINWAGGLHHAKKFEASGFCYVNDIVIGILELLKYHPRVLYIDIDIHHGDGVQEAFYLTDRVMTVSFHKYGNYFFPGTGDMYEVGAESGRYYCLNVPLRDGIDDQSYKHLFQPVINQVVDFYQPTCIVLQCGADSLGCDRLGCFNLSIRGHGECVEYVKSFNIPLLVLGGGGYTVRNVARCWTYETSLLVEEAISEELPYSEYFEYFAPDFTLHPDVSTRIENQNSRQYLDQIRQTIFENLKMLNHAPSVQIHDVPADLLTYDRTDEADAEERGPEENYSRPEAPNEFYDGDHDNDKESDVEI", "sequence (Q9Y618 whole entry partner)": "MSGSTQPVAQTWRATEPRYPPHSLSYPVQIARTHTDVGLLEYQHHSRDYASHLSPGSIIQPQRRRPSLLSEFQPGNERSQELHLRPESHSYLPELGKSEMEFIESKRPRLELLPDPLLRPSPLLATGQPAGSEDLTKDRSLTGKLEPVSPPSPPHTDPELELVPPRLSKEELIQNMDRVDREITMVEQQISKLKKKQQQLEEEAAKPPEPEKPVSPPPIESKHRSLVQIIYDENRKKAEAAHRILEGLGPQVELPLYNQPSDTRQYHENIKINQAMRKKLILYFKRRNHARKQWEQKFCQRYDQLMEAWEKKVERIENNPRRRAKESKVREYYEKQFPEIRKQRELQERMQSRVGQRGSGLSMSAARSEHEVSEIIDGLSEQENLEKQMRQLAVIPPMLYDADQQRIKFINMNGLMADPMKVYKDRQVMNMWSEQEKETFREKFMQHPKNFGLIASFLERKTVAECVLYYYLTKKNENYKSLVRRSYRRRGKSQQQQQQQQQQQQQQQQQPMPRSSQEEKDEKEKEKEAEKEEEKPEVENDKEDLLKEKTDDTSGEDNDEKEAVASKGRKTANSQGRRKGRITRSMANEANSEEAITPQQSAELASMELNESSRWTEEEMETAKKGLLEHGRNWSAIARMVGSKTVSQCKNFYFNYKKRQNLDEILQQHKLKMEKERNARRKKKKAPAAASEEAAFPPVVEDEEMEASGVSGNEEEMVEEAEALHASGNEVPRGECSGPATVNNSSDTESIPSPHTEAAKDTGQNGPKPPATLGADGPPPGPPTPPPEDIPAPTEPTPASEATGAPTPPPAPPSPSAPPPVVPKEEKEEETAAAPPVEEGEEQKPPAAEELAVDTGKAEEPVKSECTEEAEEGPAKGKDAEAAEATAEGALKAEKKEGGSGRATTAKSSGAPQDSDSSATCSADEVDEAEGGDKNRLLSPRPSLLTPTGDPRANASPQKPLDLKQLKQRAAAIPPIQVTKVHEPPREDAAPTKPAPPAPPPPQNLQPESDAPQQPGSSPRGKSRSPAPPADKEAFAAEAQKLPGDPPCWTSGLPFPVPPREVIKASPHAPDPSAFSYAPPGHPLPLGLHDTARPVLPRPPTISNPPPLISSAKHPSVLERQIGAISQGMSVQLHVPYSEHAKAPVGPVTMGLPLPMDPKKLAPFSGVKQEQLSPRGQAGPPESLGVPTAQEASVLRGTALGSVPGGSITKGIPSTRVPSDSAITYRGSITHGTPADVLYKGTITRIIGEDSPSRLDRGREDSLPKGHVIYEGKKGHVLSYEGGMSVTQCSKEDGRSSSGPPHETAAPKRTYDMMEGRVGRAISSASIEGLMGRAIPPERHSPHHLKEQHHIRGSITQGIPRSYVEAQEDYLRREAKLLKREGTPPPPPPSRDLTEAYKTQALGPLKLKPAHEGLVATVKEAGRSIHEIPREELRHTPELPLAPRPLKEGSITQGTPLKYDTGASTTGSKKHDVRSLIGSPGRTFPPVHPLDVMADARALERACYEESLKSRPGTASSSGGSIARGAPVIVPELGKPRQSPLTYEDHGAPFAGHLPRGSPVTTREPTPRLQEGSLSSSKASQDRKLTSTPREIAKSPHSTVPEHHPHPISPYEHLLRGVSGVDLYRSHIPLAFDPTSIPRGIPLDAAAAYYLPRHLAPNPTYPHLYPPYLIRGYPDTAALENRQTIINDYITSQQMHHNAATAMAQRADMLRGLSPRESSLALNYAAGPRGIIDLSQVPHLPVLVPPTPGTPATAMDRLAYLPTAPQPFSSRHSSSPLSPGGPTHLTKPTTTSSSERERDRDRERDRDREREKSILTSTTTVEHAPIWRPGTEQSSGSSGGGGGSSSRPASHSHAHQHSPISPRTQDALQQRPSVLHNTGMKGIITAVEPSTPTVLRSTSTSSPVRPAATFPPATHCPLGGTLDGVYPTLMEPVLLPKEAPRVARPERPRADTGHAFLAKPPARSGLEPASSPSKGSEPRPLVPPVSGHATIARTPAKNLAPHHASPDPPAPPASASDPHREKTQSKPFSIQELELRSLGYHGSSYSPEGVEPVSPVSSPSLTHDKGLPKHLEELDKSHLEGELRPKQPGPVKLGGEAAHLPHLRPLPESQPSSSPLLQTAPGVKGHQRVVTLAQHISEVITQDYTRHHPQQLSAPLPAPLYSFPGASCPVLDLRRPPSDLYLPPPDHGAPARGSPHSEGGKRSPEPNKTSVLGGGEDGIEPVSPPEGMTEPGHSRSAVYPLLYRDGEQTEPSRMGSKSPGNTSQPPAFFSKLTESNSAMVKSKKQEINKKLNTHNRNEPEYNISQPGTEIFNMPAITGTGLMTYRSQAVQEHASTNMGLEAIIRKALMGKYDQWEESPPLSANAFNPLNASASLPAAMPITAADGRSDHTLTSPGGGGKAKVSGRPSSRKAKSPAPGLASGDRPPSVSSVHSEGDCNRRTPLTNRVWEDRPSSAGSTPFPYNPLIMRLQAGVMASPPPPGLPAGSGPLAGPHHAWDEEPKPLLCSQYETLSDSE", "assay": "Activity on Boc-L-Lys(ε-trifluoroacetyl)-MCA compared with Biomol standard substrate, HDAC3", "format": "biochemical", "conditions": "HDAC3, FIG. 5", "excerpt": "as §1"}, "HDAC1": {"target": "HDAC1 (Homo sapiens, UniProt Q13547)", "sequence (Q13547 whole entry)": "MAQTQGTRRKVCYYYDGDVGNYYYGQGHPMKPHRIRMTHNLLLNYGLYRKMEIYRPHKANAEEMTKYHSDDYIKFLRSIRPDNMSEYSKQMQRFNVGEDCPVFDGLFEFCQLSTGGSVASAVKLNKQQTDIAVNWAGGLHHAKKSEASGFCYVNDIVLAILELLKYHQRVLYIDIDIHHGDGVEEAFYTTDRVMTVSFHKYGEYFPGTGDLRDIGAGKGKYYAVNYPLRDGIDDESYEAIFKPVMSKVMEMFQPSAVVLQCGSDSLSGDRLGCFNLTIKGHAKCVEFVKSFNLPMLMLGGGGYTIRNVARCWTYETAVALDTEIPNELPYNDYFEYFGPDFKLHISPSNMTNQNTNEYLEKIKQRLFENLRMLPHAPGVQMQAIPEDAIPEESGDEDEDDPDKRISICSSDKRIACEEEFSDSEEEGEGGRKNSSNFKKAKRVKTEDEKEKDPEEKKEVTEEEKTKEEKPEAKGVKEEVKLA", "assay": "Activity on Boc-L-Lys(ε-trifluoroacetyl)-MCA compared with Biomol standard substrate, HDAC1", "format": "biochemical", "conditions": "HDAC1, FIG. 5", "excerpt": "as §1"}, "HDAC6": {"target": "T3, HDAC6 (Homo sapiens, UniProt Q9UBN7)", "T3 sequence (Q9UBN7 1-1215)": "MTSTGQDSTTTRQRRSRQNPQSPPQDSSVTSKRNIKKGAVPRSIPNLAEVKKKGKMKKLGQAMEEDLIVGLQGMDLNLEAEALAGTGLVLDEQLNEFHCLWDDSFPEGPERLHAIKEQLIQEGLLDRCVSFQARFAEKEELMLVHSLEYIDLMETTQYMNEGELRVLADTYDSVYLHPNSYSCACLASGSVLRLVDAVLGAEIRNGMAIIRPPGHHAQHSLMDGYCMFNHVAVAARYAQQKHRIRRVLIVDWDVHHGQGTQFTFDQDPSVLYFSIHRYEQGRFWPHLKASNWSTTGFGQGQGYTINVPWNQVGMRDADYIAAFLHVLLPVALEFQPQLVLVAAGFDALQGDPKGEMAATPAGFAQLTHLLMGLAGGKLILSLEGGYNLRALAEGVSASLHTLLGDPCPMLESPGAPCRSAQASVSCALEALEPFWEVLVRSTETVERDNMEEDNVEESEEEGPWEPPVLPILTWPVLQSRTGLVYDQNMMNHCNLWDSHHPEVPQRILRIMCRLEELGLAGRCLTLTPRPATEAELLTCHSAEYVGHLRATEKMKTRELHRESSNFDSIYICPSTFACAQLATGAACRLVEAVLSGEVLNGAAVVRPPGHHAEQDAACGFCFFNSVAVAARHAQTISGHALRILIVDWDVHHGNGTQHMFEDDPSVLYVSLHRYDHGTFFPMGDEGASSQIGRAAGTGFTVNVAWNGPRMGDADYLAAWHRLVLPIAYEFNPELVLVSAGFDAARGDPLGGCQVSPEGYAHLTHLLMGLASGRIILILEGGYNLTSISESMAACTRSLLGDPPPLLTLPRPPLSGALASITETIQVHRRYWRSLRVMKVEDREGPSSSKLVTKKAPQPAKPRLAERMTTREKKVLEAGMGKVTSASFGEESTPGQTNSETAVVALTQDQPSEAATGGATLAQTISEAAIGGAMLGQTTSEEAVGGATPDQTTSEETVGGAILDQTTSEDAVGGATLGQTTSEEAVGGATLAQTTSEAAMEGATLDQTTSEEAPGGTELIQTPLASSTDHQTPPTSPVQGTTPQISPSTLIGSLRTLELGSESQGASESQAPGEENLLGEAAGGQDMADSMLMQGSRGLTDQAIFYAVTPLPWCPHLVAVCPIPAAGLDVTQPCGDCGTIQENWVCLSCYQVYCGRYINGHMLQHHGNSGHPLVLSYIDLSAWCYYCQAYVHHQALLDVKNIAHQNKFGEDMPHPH", "assay": "Activity on Boc-L-Lys(ε-trifluoroacetyl)-MCA compared with Biomol standard substrate, HDAC6", "format": "biochemical", "conditions": "HDAC6, FIG. 5", "excerpt": "as §1"}, "HDAC from rat liver": {"test_system": "HDAC from rat liver", "conditions": "cited from earlier work"}, "HDAC8 [3]": {"target": "T2, HDAC8", "conditions": "substrate of (recombinant) human HDAC8; cited from earlier work"}, "HDAC4-FLAG [4]": {"test_system": "HDAC4-FLAG", "assay": "Enzymatic activity of HDAC4-FLAG, inhibition (Biomol assay kit and histone substrates)", "format": "biochemical", "conditions": "FIG. 2"}, "HDAC4-FLAG [5]": {"target": "T4, HDAC4-FLAG (Homo sapiens, UniProt P56524)", "T4 construct": "the full length HDAC4protein (HDAC4-FLAG) was also analysed; FLAG (C); made in house", "T4 sequence (P56524 whole entry)": "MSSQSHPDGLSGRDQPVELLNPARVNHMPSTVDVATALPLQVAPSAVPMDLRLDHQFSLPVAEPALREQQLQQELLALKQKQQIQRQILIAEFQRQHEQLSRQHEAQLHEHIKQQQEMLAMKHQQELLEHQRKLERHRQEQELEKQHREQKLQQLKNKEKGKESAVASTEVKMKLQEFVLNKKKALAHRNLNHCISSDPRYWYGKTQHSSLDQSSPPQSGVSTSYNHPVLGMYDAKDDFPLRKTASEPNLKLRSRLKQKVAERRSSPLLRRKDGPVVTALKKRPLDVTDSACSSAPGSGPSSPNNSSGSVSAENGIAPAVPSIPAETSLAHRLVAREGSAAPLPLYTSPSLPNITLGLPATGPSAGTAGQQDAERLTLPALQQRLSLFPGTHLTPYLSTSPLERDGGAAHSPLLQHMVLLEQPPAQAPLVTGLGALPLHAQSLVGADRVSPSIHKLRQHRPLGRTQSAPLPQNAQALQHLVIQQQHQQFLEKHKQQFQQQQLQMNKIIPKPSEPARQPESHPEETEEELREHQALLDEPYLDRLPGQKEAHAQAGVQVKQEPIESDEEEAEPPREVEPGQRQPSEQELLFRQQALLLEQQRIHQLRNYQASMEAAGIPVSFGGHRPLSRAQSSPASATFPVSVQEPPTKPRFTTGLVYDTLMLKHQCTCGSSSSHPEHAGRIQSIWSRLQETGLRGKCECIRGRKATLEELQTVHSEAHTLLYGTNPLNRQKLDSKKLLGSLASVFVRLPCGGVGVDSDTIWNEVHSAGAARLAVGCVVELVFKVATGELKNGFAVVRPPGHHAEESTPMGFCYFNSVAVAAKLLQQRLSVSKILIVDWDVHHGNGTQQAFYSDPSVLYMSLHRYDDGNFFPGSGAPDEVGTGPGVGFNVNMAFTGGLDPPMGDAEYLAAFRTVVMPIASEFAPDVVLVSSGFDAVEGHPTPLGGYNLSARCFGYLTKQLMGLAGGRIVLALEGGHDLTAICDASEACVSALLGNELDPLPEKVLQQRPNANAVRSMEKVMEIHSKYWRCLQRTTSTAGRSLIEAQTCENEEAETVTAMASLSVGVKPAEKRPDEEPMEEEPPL", "format": "binding", "conditions": "cross-linking assay"}, "HDAC4-CD [6]": {"target": "T1, HDAC4-CD", "assay": "Inhibition of HDAC4-CD activity on Lys-Trifluoro substrate", "format": "biochemical", "conditions": "HDAC4-CD 0.5 nM, FIG. 6"}}}
{"smiles": "Cc1cc(=O)oc2ccc(NC(=O)[C@H](CCCCNC(=O)C(F)(F)F)NC(=O)OC(C)(C)C)cc12", "note": "[Boc-L-Lys(ε-trifluoroacetyl)-MCA, tert-Butyl [(1S)-5-(trifluoroacetylamino)-1-[[(4-methyl-2-oxo-2H-1-benzopyran-6-yl)amino]carbonyl]pentyl]-carbamic Acid Ester]", "values": [{"measurement": "enzyme activity on substrate compared with Biomol standard substrate", "setting": "HDAC4-CD [1]", "value": "work better"}, {"measurement": "enzyme activity on substrate compared with Biomol standard substrate", "setting": "HDAC8 [2]", "value": "work better"}, {"measurement": "enzyme activity on substrate compared with Biomol standard substrate", "setting": "HDAC3", "value": "works with the same efficiency"}, {"measurement": "enzyme activity on substrate compared with Biomol standard substrate", "setting": "HDAC1", "value": "did not work"}, {"measurement": "enzyme activity on substrate compared with Biomol standard substrate", "setting": "HDAC6", "value": "did not work"}, {"measurement": "conversion of substrate by rat liver HDAC", "setting": "HDAC from rat liver; rat liver HDAC", "value": "did not convert"}, {"measurement": "Km", "setting": "HDAC8 [3]", "value": 247, "unit": "µM"}]}
{"smiles": "Nc1ccccc1NC(=O)c1ccc(CNC(=O)OCc2cccnc2)cc1", "note": "[MS27-275]", "values": [{"measurement": "inhibition constants", "setting": "HDAC4-FLAG [4]", "value": "good inhibition constants"}]}
{"smiles": "CC(=O)NCCCC[C@H](NC(=O)OC(C)(C)C)C(=O)Nc1ccc2c(C)cc(=O)oc2c1", "note": "[Boc-L-Lys(ε-acetyl)-MCA, reference compound]", "values": [{"measurement": "Km", "setting": "HDAC from rat liver; substrate of HDAC from rat liver (mixture of HDAC1, 2 and 3)", "value": 3.7, "unit": "µM"}]}
{"smiles": "O=C(/C=C/c1ccc(CN(CCO)CCc2c[nH]c3ccccc23)cc1)NO", "note": "[LAQ824]", "values": [{"measurement": "binding to HDAC4-FLAG", "setting": "HDAC4-FLAG [5]", "value": "able to significantly and specifically bind"}, {"measurement": "inhibition of HDAC4-CD activity on Lys-Trifluoro substrate", "setting": "HDAC4-CD [6]", "value": "inhibited"}]}
